Data as given in US7208178B2, “Polymorphs of sodium 4-[(4-chloro-2-hydroxybenzoyl) amino] butanoate” (Emisphere Technologies, Inc., priority 2000, dated 2007).

Assay: Solid-state stability of amorphous form at ambient conditions
Type: physicochemical
Conditions: amorphous form prepared by solidification, from solution or lyophilization

O=C(O)CCCNC(=O)c1ccc(Cl)cc1O [amorphous form, sodium 4-[(4-chloro-2-hydroxybenzoyl)amino]butanoate]
stability at ambient conditions: unstable at ambient conditions and transforms to Form II
